Data: US4619929A, “Phenylpiperazine derivatives of hetarylphenols and hetarylanilines, their preparation, and therapeutic agents containing these compounds” (BASF Aktiengesellschaft, priority 1981, dated 1986)
Read-outs that look alike come from different tables or passages of the source.

Columns and labels:
[1] = Sedative action: orientation hypermotility of mice induced by a new environment (ED 50%); type: in vivo, female NMRI mice; settings: for Sedative effect R.A. (relative activity; chlorpromazine = 1.00) / ED50: mouse, oral administration; for Inhibition of the orientation hypermotility of mice (sedative-neuroleptic action), in words / Sedative action compared with chlorpromazine, in words: mice
Description: The substance was administered orally to 4-8 groups each comprising 3 female NMRI mice. The orientation hypermotility induced by a new environment was determined photoelectrically, 30 minutes after administration of the substance, over a period of 30 minutes. The ED 50%, i.e. the dose which produces 50% reduction in orientation hypermotility compared to placebo-treated control […], is determined.

[2] = Hypotensive action on rats under urethane narcosis, blood pressure measured in the carotid artery (ED 20%); type: in vivo, Sprague-Dawley rats; settings: for Hypotensive effect R.A. (relative activity; chlorpromazine = 1.00) / ED20: rat; for Separation between sedative action and hypotensive action versus chlorpromazine: in words; for Hypotensive action in words: blood pressure lowering doses versus chlorpromazine: narcotized rats; for Hypotensive side effect, in words: versus chlorpromazine
Description: The blood pressure was measured in the carotid artery. The substance was administered either by introduction into a jugular vein (as an aqueous solution, at the rate of 1 ml/kg) or intraperitoneally as a suspension in tragacanth (at the rate of 10 ml/kg). The ED 20%, i.e. the dose which produces a 20% lowering of the blood pressure, was determined from the linear regression of log dose (mg/kg) and relative lowering of the blood pressure (Δ %).

[3] = Table 1, read-out: Sedative effect ED 50% (dose which reduces the motility by 50%)
[4] = Table 1, quotient defined by formula drawing 8 (sedative ED 50% mouse oral, hypotensive ED 20% rat i.v.)
[5] = Table 1, intravenous administration
[6] = Table 1, intravenous administration, read-out: Hypotensive effect ED 20% (dose which reduces the blood pressure by 20%)
[7] = Table 2, read-out: Sedative effect ED 50%
[8] = Table 2, defined by formula drawing 9, hypotensive effect i.p.
[9] = Table 2, defined by formula drawing 9, hypotensive effect i.v.
[10] = Table 2, intraperitoneal (i.p.)
[11] = Table 2, intravenous (i.v.), read-out: Hypotensive effect ED 20%
[12] = ip, Table 2, intraperitoneal (i.p.), read-out: Hypotensive effect ED 20%

| SMILES | Sedative effect R.A. (relative activity; chlorpromazine = 1.00) ([1]; Table 1) | ED50 [1, 3] | Q [2, 4] | Hypotensive effect R.A. (relative activity; chlorpromazine = 1.00) [2, 5] | ED20 [2, 6] | Separation between sedative action and hypotensive action versus chlorpromazine [2] | Hypotensive action in words: blood pressure lowering doses versus chlorpromazine [2] | Sedative effect R.A. (relative activity; chlorpromazine = 1.00) ([1]; Table 2) | ED50 [1, 7] | Q [2, 8] | Q [2, 9] | Hypotensive effect R.A. (relative activity; chlorpromazine = 1.00) [2, 10] | Hypotensive effect R.A. (relative activity; chlorpromazine = 1.00) ([2]; Table 2, intravenous (i.v.)) | ED20 [2, 11] | ED20 [2, 12] | Hypotensive side effect, in words [2] | Inhibition of the orientation hypermotility of mice (sedative-neuroleptic action), in words [1] | Sedative action compared with chlorpromazine, in words [1] |
| --- | --- | --- | --- | --- | --- | --- | --- | --- | --- | --- | --- | --- | --- | --- | --- | --- | --- | --- |
| COc1ccccc1N1CCN(CCCOc2cccc(-c3nnco3)c2)CC1 [Example 6, 1-[3-(1,3,4-Oxadiazol-2-yl)-phenoxy]-3-[4-(2-methoxyphenyl)-piperazin-1-yl]-propane] | 0.66 | 3.21 mg/kg | 417 | 3.38 | 0.0077 mg/kg | substantially greater | significantly lower than in the case of chlorpromazine |  |  |  |  |  |  |  |  |  |  |  |
| COc1ccccc1N1CCN(CCCOc2ccccc2-c2nnc(C)o2)CC1 [Example 3, 1-[2-(5-Methyl-1,3,4-oxadiazol-2-yl)-phenoxy]-3-[4-(2-methoxyphenyl)-piperazin-1-yl]-propane] | 0.10 | 20.5 mg/kg | 534 | 0.68 | 0.0384 mg/kg | substantially greater |  |  |  |  |  |  |  |  |  |  |  |  |
| CN(C)CCCN1c2ccccc2Sc2ccc(Cl)cc21 [chlorpromazine, reference compound] | 1.00 |  | 81 | 1.00 | 0.026 mg/kg |  |  | 1.0 | 2.11 mg/kg | 12.9 | 81.0 | 1.0 | 1.0 | 0.026 mg/kg | 0.164 mg/kg | observed even at low doses |  |  |
| COc1ccccc1N1CCN(CCCOc2ccc(-c3nnco3)cc2)CC1 [Example 11, 1-[4-(1,3,4-Oxadiazol-2-yl)-phenoxy]-3-[4-(2-methoxyphenyl)-piperazin-1-yl]-propane] | 0.98 | 2.15 mg/kg | 307 | 3.71 | 0.007 mg/kg | substantially greater | significantly lower than in the case of chlorpromazine |  |  |  |  |  |  |  |  |  |  |  |
| Fc1ccc(N2CCN(CCCOc3ccc(-n4ccnc4)cc3)CC2)cc1 [Example 10] |  |  |  |  |  |  |  | 0.69 | 3.05 mg/kg |  | 3.0 |  | 0.03 | 1 mg/kg |  | non-hypotensive action up to doses of 1 or 10 mg/kg | powerful inhibition of the orientation hypermotility of mice | almost achieved |
| COc1ccccc1N1CCN(CCCOc2cccc(-c3nnc(C)o3)c2)CC1 [Example 7, 1-[3-(5-Methyl-1,3,4-oxadiazol-2-yl)-phenoxy]-3-[4-(2-methoxyphenyl)-piperazin-1-yl]-propane] | 0.56 | 3.74 mg/kg | 312 | 2.17 | 0.0012 mg/kg | substantially greater | significantly lower than in the case of chlorpromazine |  |  |  |  |  |  |  |  |  |  |  |
| Fc1ccc(N2CCN(CCCNc3ccc(-n4ccnc4)cc3)CC2)cc1 [Example 15, 1-[4-(Imidazol-1-yl)-phenylamino]-3-[4-(4-fluorophenyl)-piperazin-1-yl]-propane] |  |  |  |  |  |  |  | 1.3 | 1.62 mg/kg |  | 0.16 |  | 0.003 | 10 mg/kg |  | non-hypotensive action up to doses of 1 or 10 mg/kg | powerful inhibition of the orientation hypermotility of mice | clearly surpassed |
| COc1ccccc1N1CCN(CCCOc2ccccc2-c2nnco2)CC1 [Example 1] | 0.13 | 16.4 mg/kg | 2,050 | 3.25 | 0.008 mg/kg | substantially greater | significantly lower than in the case of chlorpromazine |  |  |  |  |  |  |  |  |  |  |  |
| Fc1ccc(N2CCN(CCCNc3ccc(-n4cncn4)cc3)CC2)cc1 [Example 14, 1-[4-(1,2,4-Triazol-1-yl)-phenylamino]-3-[4-(4-fluorophenyl)-piperazin-1-yl]-propane] |  |  |  |  |  |  |  | 2.59 | 0.818 mg/kg | 0.08 |  | 0.02 |  |  | 10 mg/kg | non-hypotensive action up to doses of 1 or 10 mg/kg | powerful inhibition of the orientation hypermotility of mice | clearly surpassed |
